In ChEMBL document CHEMBL5465560, “Selectivity Literature for EUbOPEN Chemogenomic Library” (2024):

Key:
[1] = biological target: Ribosomal protein S6 kinase alpha-5 (Homo sapiens) (UniProt O75582); assay: Selectivity interaction (KinomeScan (DiscoverX)) EUB0000877a RPS6KA5; settings: at 10 µM
[2] = biological target: T1, Myosin light chain kinase, smooth muscle (Homo sapiens, UniProt Q15746); assay: Selectivity interaction (Kinase panel (literature)) EUB0001199aCl MYLK; settings: at 1 µM
[3] = biological target: Serine/threonine-protein kinase Chk2 (Homo sapiens) (UniProt O96017); assay: Selectivity interaction (SelectScreen profiling (Invitrogen)) EUB0000607a CHEK2; settings: at 2 µM
[4] = biological target: T1, Myosin light chain kinase, smooth muscle; assay: Selectivity interaction (Kinase panel (Invitrogen, enzymatic assay)) EUB0000162b MYLK
[5] = biological target: Protein kinase C eta type (Homo sapiens) (UniProt P24723); assay: Selectivity interaction (KinomeScan (DiscoverX)) EUB0000595a PRKCH; settings: at 10 µM
[6] = biological target: T2, Inhibitor of nuclear factor kappa-B kinase subunit beta (Homo sapiens) (UniProt O14920); assay: Selectivity interaction (Millipore kinase profiler) EUB0000124b IKBKB; settings: at 10 µM
T2 sequence (whole entry): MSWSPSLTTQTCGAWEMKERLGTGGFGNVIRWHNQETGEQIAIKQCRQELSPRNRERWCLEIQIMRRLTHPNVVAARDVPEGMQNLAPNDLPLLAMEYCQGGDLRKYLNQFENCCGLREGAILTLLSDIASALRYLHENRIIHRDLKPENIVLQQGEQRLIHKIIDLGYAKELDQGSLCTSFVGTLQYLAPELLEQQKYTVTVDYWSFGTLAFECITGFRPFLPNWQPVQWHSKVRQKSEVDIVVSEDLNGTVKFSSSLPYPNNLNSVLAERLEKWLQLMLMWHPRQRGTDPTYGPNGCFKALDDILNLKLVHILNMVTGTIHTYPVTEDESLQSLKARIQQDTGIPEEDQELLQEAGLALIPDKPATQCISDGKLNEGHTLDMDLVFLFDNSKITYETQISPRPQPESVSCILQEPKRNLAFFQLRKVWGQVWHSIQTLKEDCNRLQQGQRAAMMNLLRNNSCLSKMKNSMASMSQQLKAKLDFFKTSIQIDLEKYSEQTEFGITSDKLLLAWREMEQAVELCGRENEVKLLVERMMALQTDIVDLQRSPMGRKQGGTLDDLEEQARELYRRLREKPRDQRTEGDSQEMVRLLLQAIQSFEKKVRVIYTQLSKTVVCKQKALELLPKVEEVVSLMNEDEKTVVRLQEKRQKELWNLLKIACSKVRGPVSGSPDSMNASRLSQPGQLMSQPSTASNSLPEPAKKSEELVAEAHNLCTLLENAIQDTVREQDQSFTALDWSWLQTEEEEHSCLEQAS

[7] = biological target: T3, Cytoplasmic tyrosine-protein kinase BMX (Homo sapiens) (UniProt P51813); assay: Selectivity interaction (KinomeScan (DiscoverX)) EUB0000655a BMX; settings: at 10 µM
T3 sequence (whole entry): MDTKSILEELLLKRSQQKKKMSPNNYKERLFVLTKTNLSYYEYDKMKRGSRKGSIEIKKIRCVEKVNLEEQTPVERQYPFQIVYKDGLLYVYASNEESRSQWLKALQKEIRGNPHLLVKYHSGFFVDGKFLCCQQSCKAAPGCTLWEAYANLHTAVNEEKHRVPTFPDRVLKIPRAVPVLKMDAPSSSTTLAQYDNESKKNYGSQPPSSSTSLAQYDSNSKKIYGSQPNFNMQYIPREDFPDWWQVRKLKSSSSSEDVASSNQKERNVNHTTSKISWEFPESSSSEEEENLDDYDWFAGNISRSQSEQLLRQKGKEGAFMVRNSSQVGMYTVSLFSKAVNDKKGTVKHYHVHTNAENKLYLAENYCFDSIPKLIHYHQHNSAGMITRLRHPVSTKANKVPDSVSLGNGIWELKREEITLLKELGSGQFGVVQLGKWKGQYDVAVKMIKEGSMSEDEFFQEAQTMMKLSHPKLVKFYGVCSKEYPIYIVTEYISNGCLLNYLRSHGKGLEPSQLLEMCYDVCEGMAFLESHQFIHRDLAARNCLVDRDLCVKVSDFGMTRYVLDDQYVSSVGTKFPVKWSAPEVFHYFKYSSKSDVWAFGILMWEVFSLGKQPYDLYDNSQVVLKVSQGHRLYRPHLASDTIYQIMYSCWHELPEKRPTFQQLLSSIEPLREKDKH

[8] = biological target: Dual specificity mitogen-activated protein kinase kinase 2 (Homo sapiens) (UniProt P36507); assay: Selectivity interaction (KinomeScan (DiscoverX)) EUB0001079a MAP2K2; settings: at 1 µM
[9] = tested on: Epidermal growth factor receptor (Homo sapiens), P00533 [UNDEFINED MUTATION]; assay: Selectivity interaction (KinomeScan (DiscoverX)) EUB0001079a EGFR; settings: at 1 µM
[10] = biological target: T4, Interleukin-1 receptor-associated kinase 4 (Homo sapiens, UniProt Q9NWZ3); assay: Selectivity interaction (Enzymatic assay) EUB0001550a IRAK4
T4 sequence (Q9NWZ3 whole entry): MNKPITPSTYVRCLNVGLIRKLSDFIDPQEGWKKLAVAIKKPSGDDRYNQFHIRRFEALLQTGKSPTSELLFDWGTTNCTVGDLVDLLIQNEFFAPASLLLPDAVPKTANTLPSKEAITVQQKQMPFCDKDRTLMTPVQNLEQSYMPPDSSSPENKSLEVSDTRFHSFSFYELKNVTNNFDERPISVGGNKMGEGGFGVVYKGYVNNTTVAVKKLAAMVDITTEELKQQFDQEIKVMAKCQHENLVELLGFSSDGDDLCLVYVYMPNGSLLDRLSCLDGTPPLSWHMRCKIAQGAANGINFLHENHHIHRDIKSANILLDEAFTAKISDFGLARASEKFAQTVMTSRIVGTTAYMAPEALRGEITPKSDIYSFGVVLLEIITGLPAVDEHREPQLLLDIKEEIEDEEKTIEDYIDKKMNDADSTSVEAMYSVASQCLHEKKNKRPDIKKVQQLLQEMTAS

[11] = biological target: Mitogen-activated protein kinase kinase kinase 14 (Homo sapiens) (UniProt Q99558); assay: Selectivity interaction (KinomeScan (DiscoverX)) EUB0000229b MAP3K14; settings: at 10 µM
[12] = tested on: Tyrosine-protein kinase ABL1 (Homo sapiens), P00519 [Q252H]; settings: at 10 µM
[13] = biological target: Cyclin-dependent kinase 5 (Homo sapiens, UniProt Q00535); assay: Selectivity interaction (KinomeScan (DiscoverX)) EUB0001619a CDK5; settings: at 1 µM
Cyclin-dependent kinase 5, sequence (Q00535 whole entry, looked up): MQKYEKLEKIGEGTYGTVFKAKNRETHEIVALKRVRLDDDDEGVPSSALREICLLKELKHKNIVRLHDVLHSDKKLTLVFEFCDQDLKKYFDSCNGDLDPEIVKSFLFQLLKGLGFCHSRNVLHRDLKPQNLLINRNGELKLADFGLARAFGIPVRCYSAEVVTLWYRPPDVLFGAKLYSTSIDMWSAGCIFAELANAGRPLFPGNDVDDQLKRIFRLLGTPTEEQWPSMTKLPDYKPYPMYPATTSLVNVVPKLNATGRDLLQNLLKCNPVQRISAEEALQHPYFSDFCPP

T1 sequence (Q15746 whole entry): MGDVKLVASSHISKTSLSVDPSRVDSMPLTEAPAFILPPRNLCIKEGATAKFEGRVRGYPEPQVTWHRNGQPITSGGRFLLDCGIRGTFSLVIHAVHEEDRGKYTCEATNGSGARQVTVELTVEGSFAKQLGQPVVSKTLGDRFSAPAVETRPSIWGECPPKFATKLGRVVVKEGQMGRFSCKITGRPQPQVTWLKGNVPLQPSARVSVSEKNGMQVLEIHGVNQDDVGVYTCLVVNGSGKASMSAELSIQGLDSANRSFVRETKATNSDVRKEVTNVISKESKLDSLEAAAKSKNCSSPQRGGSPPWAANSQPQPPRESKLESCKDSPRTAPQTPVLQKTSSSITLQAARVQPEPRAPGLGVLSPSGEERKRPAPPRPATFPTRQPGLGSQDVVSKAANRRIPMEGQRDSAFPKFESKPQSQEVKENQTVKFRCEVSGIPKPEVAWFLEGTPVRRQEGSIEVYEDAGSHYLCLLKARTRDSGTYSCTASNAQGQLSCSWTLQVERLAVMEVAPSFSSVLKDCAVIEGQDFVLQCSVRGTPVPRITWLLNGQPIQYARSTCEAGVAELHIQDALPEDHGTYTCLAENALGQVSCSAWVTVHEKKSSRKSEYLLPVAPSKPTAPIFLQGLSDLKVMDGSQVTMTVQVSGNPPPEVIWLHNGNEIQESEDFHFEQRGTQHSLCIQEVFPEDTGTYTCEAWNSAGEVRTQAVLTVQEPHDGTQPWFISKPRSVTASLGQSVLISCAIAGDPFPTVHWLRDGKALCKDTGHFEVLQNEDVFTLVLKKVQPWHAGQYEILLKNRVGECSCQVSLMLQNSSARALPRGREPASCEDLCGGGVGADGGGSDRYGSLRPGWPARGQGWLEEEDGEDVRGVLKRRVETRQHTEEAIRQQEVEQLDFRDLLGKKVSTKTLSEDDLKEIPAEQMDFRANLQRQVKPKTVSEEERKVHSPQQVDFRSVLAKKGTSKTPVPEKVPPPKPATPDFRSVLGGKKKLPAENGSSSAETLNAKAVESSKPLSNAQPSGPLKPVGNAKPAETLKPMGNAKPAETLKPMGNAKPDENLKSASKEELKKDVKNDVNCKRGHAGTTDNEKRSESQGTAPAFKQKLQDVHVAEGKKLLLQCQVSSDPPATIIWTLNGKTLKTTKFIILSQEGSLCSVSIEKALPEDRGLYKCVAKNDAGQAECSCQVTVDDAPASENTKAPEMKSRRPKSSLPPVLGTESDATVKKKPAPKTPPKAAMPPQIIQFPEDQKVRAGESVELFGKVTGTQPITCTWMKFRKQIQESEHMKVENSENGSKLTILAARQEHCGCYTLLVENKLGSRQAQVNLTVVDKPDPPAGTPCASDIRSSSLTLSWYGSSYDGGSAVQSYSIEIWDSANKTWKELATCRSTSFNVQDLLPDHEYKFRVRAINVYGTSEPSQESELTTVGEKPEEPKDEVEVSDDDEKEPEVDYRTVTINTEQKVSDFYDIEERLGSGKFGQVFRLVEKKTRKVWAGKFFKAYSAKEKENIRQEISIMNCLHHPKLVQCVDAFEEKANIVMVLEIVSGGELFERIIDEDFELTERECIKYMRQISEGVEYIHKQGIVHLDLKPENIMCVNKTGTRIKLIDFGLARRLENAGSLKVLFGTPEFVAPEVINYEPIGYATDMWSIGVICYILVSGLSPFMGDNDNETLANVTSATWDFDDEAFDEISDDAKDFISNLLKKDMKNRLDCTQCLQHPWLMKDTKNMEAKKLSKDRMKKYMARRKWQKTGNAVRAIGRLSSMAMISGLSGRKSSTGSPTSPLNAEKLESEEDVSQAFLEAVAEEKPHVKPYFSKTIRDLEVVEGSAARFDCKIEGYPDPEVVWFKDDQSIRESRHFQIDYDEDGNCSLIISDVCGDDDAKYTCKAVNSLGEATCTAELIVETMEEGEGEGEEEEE
Ribosomal protein S6 kinase alpha-5 (Homo sapiens), sequence (O75582 whole entry, looked up): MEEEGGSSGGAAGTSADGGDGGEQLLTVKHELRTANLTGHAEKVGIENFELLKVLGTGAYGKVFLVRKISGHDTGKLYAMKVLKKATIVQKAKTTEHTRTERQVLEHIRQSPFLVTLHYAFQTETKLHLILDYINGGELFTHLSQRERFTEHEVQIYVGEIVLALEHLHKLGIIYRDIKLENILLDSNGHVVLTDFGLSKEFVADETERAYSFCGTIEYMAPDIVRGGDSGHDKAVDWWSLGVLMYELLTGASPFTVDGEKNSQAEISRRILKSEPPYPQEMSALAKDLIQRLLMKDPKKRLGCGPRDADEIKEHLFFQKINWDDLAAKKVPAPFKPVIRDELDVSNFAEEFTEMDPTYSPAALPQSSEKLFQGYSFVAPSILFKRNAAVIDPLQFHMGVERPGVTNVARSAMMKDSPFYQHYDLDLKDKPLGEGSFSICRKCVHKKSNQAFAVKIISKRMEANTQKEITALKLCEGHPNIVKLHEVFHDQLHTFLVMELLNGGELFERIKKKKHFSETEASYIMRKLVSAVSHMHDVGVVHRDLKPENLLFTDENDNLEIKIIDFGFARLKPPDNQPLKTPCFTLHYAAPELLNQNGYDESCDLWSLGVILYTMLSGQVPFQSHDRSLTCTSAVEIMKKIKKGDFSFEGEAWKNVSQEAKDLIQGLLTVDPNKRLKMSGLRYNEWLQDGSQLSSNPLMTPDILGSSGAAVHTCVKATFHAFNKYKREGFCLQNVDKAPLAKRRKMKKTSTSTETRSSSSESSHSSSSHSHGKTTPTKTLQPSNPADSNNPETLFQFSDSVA
Mitogen-activated protein kinase kinase kinase 14 (Homo sapiens), sequence (Q99558 whole entry, looked up): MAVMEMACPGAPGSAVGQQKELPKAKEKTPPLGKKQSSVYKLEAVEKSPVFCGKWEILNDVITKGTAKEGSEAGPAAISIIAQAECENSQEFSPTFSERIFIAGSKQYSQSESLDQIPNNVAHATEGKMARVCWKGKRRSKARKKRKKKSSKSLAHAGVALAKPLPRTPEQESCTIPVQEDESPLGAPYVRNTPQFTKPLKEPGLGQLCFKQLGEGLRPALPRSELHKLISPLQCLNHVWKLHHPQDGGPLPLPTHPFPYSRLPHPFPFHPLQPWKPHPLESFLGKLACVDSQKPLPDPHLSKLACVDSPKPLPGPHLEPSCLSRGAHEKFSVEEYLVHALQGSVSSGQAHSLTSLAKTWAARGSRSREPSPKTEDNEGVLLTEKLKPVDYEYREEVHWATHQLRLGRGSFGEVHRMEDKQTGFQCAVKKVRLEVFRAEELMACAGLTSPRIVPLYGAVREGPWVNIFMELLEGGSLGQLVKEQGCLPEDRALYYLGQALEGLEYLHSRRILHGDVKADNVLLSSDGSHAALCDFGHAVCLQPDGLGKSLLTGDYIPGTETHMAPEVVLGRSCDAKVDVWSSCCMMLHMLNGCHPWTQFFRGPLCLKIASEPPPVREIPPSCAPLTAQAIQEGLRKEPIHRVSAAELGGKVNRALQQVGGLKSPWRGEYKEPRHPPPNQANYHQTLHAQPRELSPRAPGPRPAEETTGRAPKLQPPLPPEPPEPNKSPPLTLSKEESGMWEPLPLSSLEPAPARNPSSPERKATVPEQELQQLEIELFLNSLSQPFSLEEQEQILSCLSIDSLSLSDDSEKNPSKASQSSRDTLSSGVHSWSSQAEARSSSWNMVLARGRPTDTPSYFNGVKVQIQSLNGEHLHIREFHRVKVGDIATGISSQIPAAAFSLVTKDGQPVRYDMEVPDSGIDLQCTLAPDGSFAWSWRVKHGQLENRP
Dual specificity mitogen-activated protein kinase kinase 2 (Homo sapiens), sequence (P36507 whole entry): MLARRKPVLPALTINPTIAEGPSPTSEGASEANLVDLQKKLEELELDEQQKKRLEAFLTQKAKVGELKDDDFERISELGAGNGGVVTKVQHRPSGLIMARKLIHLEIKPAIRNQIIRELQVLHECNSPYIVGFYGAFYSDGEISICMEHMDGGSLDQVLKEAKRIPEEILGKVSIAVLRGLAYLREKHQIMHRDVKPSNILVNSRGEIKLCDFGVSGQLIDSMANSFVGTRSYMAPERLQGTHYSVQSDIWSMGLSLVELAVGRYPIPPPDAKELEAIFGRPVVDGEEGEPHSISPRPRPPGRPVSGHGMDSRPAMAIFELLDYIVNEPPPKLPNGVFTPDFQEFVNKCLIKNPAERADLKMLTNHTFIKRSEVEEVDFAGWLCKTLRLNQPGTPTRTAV
Serine/threonine-protein kinase Chk2 (Homo sapiens), sequence (O96017 whole entry): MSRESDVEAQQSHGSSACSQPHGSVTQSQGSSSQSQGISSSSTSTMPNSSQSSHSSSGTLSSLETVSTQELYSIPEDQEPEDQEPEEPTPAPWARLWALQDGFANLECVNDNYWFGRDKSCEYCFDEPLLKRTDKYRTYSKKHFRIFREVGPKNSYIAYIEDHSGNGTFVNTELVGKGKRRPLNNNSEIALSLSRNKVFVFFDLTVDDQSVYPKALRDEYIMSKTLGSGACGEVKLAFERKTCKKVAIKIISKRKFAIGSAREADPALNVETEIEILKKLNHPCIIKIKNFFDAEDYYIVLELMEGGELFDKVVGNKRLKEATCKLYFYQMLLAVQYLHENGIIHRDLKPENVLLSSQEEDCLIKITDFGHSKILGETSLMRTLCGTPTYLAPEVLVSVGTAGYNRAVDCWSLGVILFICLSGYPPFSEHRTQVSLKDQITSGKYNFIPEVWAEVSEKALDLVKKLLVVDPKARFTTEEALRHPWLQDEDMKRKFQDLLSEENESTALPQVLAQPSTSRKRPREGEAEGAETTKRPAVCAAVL

CCC(=O)N1CC[C@H](Nc2ncnc3c2CN(c2cnc(OC)c(C(F)(F)F)c2)CC3)C1 [LENIOLISIB]
% of inhibition [1]: 76%

CN1Cc2nccc(-c3cn(C)nc3-c3ccc(F)cc3)c2C1=O
% of inhibition [2]: 4%

CNC(=O)Nc1ccc(-c2nc(N3CC4CCC(C3)O4)c3cnn(C4CCC5(CC4)OCCO5)c3n2)cc1
% of inhibition [3]: 3%

CN(C)C(=O)Cn1cc(-c2ccc(-c3cncc4ccccc34)cc2)cn1
IC50 [4]: 531 nM

COCC(=O)NC/C=C/c1ccc2ncnc(Nc3ccc(Oc4ccc(C)nc4)c(C)c3)c2c1 [CP-724714]
% of control [5]: 100%

CC(=O)Nc1cccc(-n2c(=O)n(C3CC3)c(=O)c3c(Nc4ccc(I)cc4F)n(C)c(=O)c(C)c32)c1
% of control [6]: 111%

CN(C)CCOc1ccc(-c2nc(-c3ccncc3)c(-c3ccc4c(c3)CC/C4=N\O)[nH]2)cc1
% of control [7]: 81%

Nc1cnc(N2CCc3cc(S(=O)(=O)Nc4c(F)cc(Cl)cc4F)cc(N4CCCC4=O)c32)nc1 [TP-020n]
% of control [8]: 92%
% of control [9]: 100%

CN(C)CC#Cc1ccc2[nH]c3c(c2c1)-c1nc(N)ncc1CCC3
IC50 [10]: 4500 nM

COc1cc(N(C)c2ccnc3ccc(C(F)(F)F)cc23)cc(OC)c1OC
% binding [11]: 100%

Cc1cc([C@@H](C)Nc2ccccc2C(=O)O)c2nc(N3CCOCC3)cc(=O)n2c1 [AZD-6482]
% of control [12]: 100%

N#Cc1cccc(-c2c[nH]c3ncnc(N4CCOCC4)c23)c1
% of control [13]: 92%
